In PMC7463460, “Structure and Antiparasitic Activity Relationship of Alkylphosphocholine Analogues against Leishmania donovani” (Microorganisms, 2020):
pIC50: −log10 of the molar value. Values joined by “and” are separate entries in the source; they are usually repeats but may differ in a detail not shown here. Equal values may be shown once. Read-outs that look alike come from different tables or passages of the source.

Key:
[1] = tested on: L. donovani LV82 promastigotes; experiment: Luciferase-expressing promastigote assay, strain LV82; format: cell-based, Leishmania donovani; conditions: for Promast: Amast Ratio: LV82; for IC50: Leishmania donovani, 72 h, LV82, 3 days, 25 °C
Method: The anti-leishmanial activity of APC against L. donovani luciferase-expressing promastigotes was determined by adding of the appropriate 100 µL parasite line (10^6 cells/mL) to the wells of a 96-well plate and adding 100 µL medium alone (controls) or 100 µL of APC compound (0.01 µg/mL–6.25 µg/mL, n = 3/treatment). The plate was incubated for 72 h at 25 °C. In combination assays, the additional compound/compounds, at a final concentration of 0.195 or 0.39 µg/mL, was added to the initial APC being tested.
(§1) Luciferin solution (1 µg/mL in 20 µL medium without FCS) was added to the appropriate wells of the 96-well plate at the end of the experiment and the amount of light emitted/well was measured using a luminometer (Biotek Synergy HT, relative light units) using a wavelength/bandwidth of 440/40 nm, or IVIS® imaging (Spectrum Living Image system®, total flux, photons/sec).
(§2) The effect of drug treatment on parasite survival was determined by calculating the mean suppression in the light emitted from the drug-treated experimental sample compared to the mean control value and used to calculate the IC50 using Grafit® software (version 5.0, Erithacus Software, East Grinstead, West Sussex, UK). The effect of drug alone on the viability of uninfected macrophages was determined using the same experimental protocol above, but cell viability was determined using an alamar blue colorimetric assay. At the end of the incubation period, cells’ 10 µL resazurin solution (0.02% w/v) was added to control and drug treated cells and the absorbance of samples was read at 575 and 595 nm. The effect of drug treatment on cell survival, which correlates with the magnitude of dye reduction, was expressed as percentage viability (or alamar blue reduction) and determined using the formula provided in the manufacturer’s protocol % alamar blue reduction=(εoxλ)(Aλ1)−(εoxλ1)(Aλ2)/(εredλ1)(A^′λ2)−(εredλ2)(A^′λ1)x100

[2] = Cytotoxicity against uninfected macrophages (alamar blue); format: cell-based, BALB/c mice; conditions: BALB/c, mouse, read-out: Macrophage mean IC50 (CC50) (converted)
Method: as §2
(§3) In the formula, ελ1 and ελ2 are constants representing the molar extinction coefficient of alamar blue at 575 and 595 nm, respectively, in the oxidized (εox) and reduced (εred) forms. Aλ1, Aλ2 and A’λ1, A’λ2 represent absorbance of test and negative control wells at 575 and 595 nm, respectively. The values of % alamar blue reduction (or % viability) were corrected for background values of negative controls containing medium without cells. Percent viability values were used to calculate the IC50 using Grafit® software (version 5.0).

[3] = tested on: L. donovani LV82 intracellular amastigotes; experiment: Intracellular amastigote assay in bone-marrow-derived macrophages, strain LV82; format: cell-based, Leishmania donovani; conditions: for IC50: Leishmania donovani, Macrophage, in Mus musculus, 72 h; for Selectivity Index (SI50): macrophage CC50 / LV82 intracellular amastigote IC50
Method: In the macrophage studies, the method described in previous studies was used as follows. […] It is possible that intracellular macrophage parasites could have been at different developmental stages at 24 h post-infection. […] Therefore, we assumed that the effect of compounds on the amastigote stage rather than the promastigotes stage was determined in in vitro macrophage studies.
The plate was incubated for a further 24 h, the medium removed, and each well washed with PBS to eliminate non-internalized parasites, which were monitored microscopically. […] Wells with macrophage and with no drug or promastigotes added were used in control experiments.
as §1
as §2, with “At the end of the incubation period, cells’ 10 µL resazurin solution (0.02% w/v) was added to control and drug treated cells and the absorbance of samples was read at 575 and 595 nm.” left out

[4] = tested on: bone-marrow-derived macrophages from BALB/c mice; experiment: Cytotoxicity against uninfected macrophages (alamar blue); format: cell-based; conditions: 3 days
Method: as §2, §3

visceral leishmaniasis = conditions: VL, 12 months post-treatment; cited from earlier work
[5] = uninfected bone-marrow-derived macrophages
[6] = LV82, intracellular in BALB/c macrophages, 3 days, 37 °C

Compound	Promast: Amast Ratio [1]	IC50 [1]	IC50 at 3 days [2, 5]	IC50 [3, 6]	Selectivity Index (SI50) [3]	Macrophage mean IC50 (CC50) [4] [µg/mL]	IC50 ([4]; read-out: Macrophage mean IC50 (CC50) (converted)) [µM]	Amastigote mean IC50 [3, 6] [µg/mL]	pIC50 [3, 6]	activity against L. donovani compared to controls ([1]; LV82 promastigotes and amastigotes)	cure rate (visceral leishmaniasis) [%]	IC50 at 3 days [2]
CC(C)CCC(CCC(C)C)OP(=O)([O-])OCC[N+](C)(C)C [APC11PC, 2,8-Dimethyl-5-Nonylphosphocholine]	>33.60	> 6.25 µg/mL and > 18.6 µM	61.9 µg/mL and 185 µM	0.19 µg/mL and 550 nM	335.56							
dodecylamine [DA]	0.18				79.88	37.60 ± 0.01	203	0.47 ± 0.00	5.60			
C=CCCCCCCCCCOP(=O)([O-])OCC[N+](C)(C)C [APC11UPC, 10-Undecylenyl-1-phosphocholine]	135.34	1.8 µg/mL and 5.37 µM	54 µg/mL and 161 µM	0.01 µg/mL and 40 nM	4025.00							
CCCCCCCCCCCCOP(=O)([O-])OCCCCCC[N+](C)(C)C [APC12P6C]	33.33	33.5 µg/mL and 82.2 µM	14.1 µg/mL and 34.6 µM	1.01 µg/mL and 2.47 µM	14.01							
CCCCCCCCCCCCOP(=O)(O)O [PO, mono –n-dodecyl phosphate]	>3.12	> 6.25 µg/mL and > 25.1 µM	100 µg/mL and 401 µM	> 2 µg/mL and > 8.02 µM	>50.00					inactive		
C[C@@H]1[C@H](O)[C@@H](C)/C=C/C=C/C=C/C=C/C=C/C=C/C=C/[C@H](O[C@@H]2O[C@H](C)[C@@H](O)[C@H](N)[C@@H]2O)C[C@@H]2O[C@](O)(C[C@@H](O)C[C@@H](O)[C@H](O)CC[C@@H](O)C[C@@H](O)CC(=O)O[C@H]1C)C[C@H](O)[C@H]2C(=O)O [AMB, amphotericin B]											93.7	
CCCCCCCCCCCC[N+](C)(C)CCCCCCCCCCCC [DAB, didodecyldimethyl ammonium bromide]	0.79	0.04 µg/mL and 91 nM		0.06 µg/mL and 119 nM	1503.45							82.8 µg/mL and 179 µM
